pIC50: −log10 of the molar value.

T1 sequence (P49336 whole entry): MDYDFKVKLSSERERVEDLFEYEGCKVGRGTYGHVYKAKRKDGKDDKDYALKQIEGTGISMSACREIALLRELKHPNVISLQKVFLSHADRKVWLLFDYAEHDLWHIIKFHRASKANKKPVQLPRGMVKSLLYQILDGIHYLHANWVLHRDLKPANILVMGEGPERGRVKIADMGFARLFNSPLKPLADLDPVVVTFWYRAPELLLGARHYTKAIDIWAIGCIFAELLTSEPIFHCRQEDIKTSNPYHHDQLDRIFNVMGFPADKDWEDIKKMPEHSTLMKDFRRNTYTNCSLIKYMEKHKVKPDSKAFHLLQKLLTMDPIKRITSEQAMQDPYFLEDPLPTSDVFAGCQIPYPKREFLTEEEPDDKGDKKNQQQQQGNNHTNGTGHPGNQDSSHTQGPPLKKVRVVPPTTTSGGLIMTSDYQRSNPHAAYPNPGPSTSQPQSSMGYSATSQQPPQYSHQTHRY
T1 sequence (P24863 whole entry partner): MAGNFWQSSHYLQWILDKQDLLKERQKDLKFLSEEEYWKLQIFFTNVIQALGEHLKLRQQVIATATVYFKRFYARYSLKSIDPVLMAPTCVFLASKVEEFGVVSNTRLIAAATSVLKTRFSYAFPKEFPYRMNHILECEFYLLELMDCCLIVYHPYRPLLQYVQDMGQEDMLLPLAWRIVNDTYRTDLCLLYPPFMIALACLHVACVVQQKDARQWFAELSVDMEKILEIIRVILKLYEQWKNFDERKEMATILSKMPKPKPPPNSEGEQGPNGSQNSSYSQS

The first assay concerns the target T1, CDK8/CycC (Homo sapiens, UniProt P49336).
T1 construct: purchased Invitrogen PV4402
Kind of assay: FRET based Lanthascreen binding competition assay for CDK8 inhibitory activity. Conditions: CDK8 co-expressed with CycC; class symbols; read-out: IC50. In a few lines:
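Competition binding of a dye-labeled ATP-competitive Alexa647 probe to CDK8 co-expressed with CycC, Eu-labeled via biotinylated anti-His antibody/streptavidin.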
On the technique in general: In TR-FRET formats the signal depends on donor and acceptor labels being close together.
One may read the pIC50 as the IC50 on a negative log10 scale, so that one unit is a factor of ten. For the molecule `O=C(c1ccc2[nH]nc(Cl)c2c1)N1CCC(c2ccc(Cl)cc2)C1` (centres unmarked) [compound 218, (3-Chloro-1H-indazol-5-yl)-[3-(4-chloro-phenyl)-pyrrolidin-1-yl]-methanone], the pIC50 was 7.00 to 8.00.
On the same count and under the same terms, then `O=C(c1ccc2[nH]nc(Cl)c2c1)N1CCCC1c1ccc(C(F)(F)F)cc1` (centres unmarked) [compound 219, (3-Chloro-1H-indazol-5-yl)-[2-(4-trifluoromethyl-phenyl)-pyrrolidin-1-yl]-methanone], with 7.00 to 8.00; and `CS(=O)(=O)c1n[nH]c2ccc(C(=O)N3CCC[C@H]3c3ccc(Cl)cc3)cc12` [compound 220, [(S)-2-(4-Chloro-phenyl)-pyrrolidin-1-yl]-(3-methanesulfonyl-1H-indazol-5-yl)-methanone], with 7.00 to 8.00.
On to `COc1ccc([C@@H]2CCCN2C(=O)c2cnc3[nH]nc(C)c3c2)cc1` [compound 221, [(S)-2-(4-Methoxy-phenyl)-pyrrolidin-1-yl]-(3-methyl-1H-pyrazolo[3,4-b]pyridin-5-yl)-methanone], for which the pIC50 was greater than 8.00.
With `COc1cccc([C@@H]2CCCN2C(=O)c2cnc3[nH]nc(C)c3c2)c1` [compound 222, [(S)-2-(3-Methoxy-phenyl)-pyrrolidin-1-yl]-(3-methyl-1H-pyrazolo[3,4-b]pyridin-5-yl)-methanone], the pIC50 was 6.00 to 7.00.
For the molecule `COc1ccc([C@H]2CCCN2C(=O)c2cnc3[nH]nc(C)c3c2)cc1` [compound 223, [(R)-2-(4-Methoxy-phenyl)-pyrrolidin-1-yl]-(3-methyl-1H-pyrazolo[3,4-b]pyridin-5-yl)-methanone], the pIC50 is 5.00 to 6.00.
With `COc1cccc([C@H]2CCCN2C(=O)c2cnc3[nH]nc(C)c3c2)c1` [compound 224, [(R)-2-(3-Methoxy-phenyl)-pyrrolidin-1-yl]-(3-methyl-1H-pyrazolo[3,4-b]pyridin-5-yl)-methanone], the pIC50 was 5.00 to 6.00.
Still for that read-out and setting: then `Cc1n[nH]c2ncc(C(=O)N3CCC[C@H]3c3ccc(Cl)cc3F)cc12` [compound 225, [(S)-2-(4-Chloro-2-fluoro-phenyl)-pyrrolidin-1 yl]-(3-methyl-1H-pyrazolo[3,4-b]pyridin-5-yl)-methanone], with greater than 8.00; and `Cc1n[nH]c2ncc(C(=O)N3CCC[C@@H]3c3ccc(Cl)cc3F)cc12` [compound 226, [(R)-2-(4-Chloro-2-fluoro-phenyl)-pyrrolidin-1-yl]-(3-methyl-1H-pyrazolo[3,4-b]pyridin-5-yl)-methanone], with 5.00 to 6.00; and `Cc1n[nH]c2ncc(C(=O)N3CCC[C@H]3c3ccc(Cl)c(F)c3)cc12` [compound 227, [(S)-2-(4-Chloro-3-fluoro-phenyl)-pyrrolidin-1-yl]-(3-methyl-1H-pyrazolo[3,4-b]pyridin-5-yl)-methanone], with greater than 8.00.
Still for that read-out and setting: with `Cc1n[nH]c2ncc(C(=O)N3CCC[C@@H]3c3ccc(Cl)c(F)c3)cc12` [compound 228, [(R)-2-(4-Chloro-3-fluoro-phenyl)-pyrrolidin-1-yl]-(3-methyl-1H-pyrazolo[3,4-b]pyridin-5-yl)-methanone] the figure was 5.00 to 6.00.
For the molecule `Cc1n[nH]c2ncc(C(=O)N3CCC[C@@H]3c3ccc4cn[nH]c4c3)cc12` [compound 229, [(R)-2-(1H-Indazol-6-yl)-pyrrolidin-1-yl]-(3-methyl-1H-pyrazolo[3,4-b]pyridin-5-yl)-methanone], the pIC50 is 5.00 to 6.00.
With `Cc1n[nH]c2ncc(C(=O)N3CCC[C@H]3c3ccc4cn[nH]c4c3)cc12` [compound 230, [(S)-2-(1H-Indazol-6-yl)-pyrrolidin-1-yl]-(3-methyl-1H-pyrazolo[3,4-b]pyridin-5-yl)-methanone], the pIC50 is 7.00 to 8.00.
Same read-out and setting: with `Cc1n[nH]c2ncc(C(=O)N3C[C@@H](C)C[C@@H]3c3ccc(C(F)(F)F)cc3)cc12` [compound 231, (3-Methyl-1H-pyrazolo[3,4-b]pyridin-5-yl)-[(2R,4S)-4-methyl-2-(4-trifluoromethyl-phenyl)-pyrrolidin-1-yl]-methanone] the figure was 5.00 to 6.00; with `Cc1n[nH]c2ncc(C(=O)N3C[C@H](C)C[C@H]3c3ccc(C(F)(F)F)cc3)cc12` [compound 232, (3-Methyl-1H-pyrazolo[3,4-b]pyridin-5-yl)-[(2S,4R)-4-methyl-2-(4-trifluoromethyl-phenyl)-pyrrolidin-1-yl]-methanone], 7.00 to 8.00; with `Cc1n[nH]c2ncc(C(=O)N3CCC(C(N)=O)CC3c3ccccc3)cc12` (centres unmarked) [compound 235, 1-(3-Methyl-1H-pyrazolo[3,4-b]pyridine-5-carbonyl)-2-phenyl-piperidine-4-carboxylic acid amide], 6.00 to 7.00.
Turning to `Cc1n[nH]c2ncc(C(=O)N3CCC(O)(c4ccc(Cl)cc4)C3)cc12` (centres unmarked) [compound 237, [3-(4-Chloro-phenyl)-3-hydroxy-pyrrolidin-1-yl]-(3-methyl-1H-pyrazolo[3,4-b]pyridin-5-yl)-methanone], the pIC50 was 6.00 to 7.00.
In the case of `Nc1n[nH]c2ccc(C(=O)N3CCC(O)(c4ccc(Cl)cc4)C3)cc12` (centres unmarked) [compound 238, (3-Amino-1H-indazol-5-yl)-[3-(4-chloro-phenyl)-3-hydroxy-pyrrolidin-1-yl]-methanone], the negative logarithm of the IC50 (pIC50) was 6.00 to 7.00.
For the molecule `O=C(c1cnc2[nH]ncc2c1)N1CCC[C@H]1c1ccc(Cl)cc1` [compound 239, [(S)-2-(4-Chloro-phenyl)-pyrrolidin-1-yl]-(1H-pyrazolo[3,4-b]pyridin-5-yl)-methanone], the pIC50 is 6.00 to 7.00.
For the molecule `Cc1n[nH]c2ncc(C(=O)N3CC[C@@H]3c3ccc(Cl)cc3)cc12` [compound 240, [(R)-2-(4-Chloro-phenyl)-azetidin-1-yl]-(3-methyl-1H-pyrazolo[3,4-b]pyridin-5-yl)-methanone], the pIC50 is 5.00 to 6.00.
Regarding `Cc1n[nH]c2ncc(C(=O)N3CC[C@H]3c3ccc(Cl)cc3)cc12` [compound 241, [(S)-2-(4-Chloro-phenyl)-azetidin-1-yl]-(3-methyl-1H-pyrazolo[3,4-b]pyridin-5-yl)-methanone], the pIC50 is 7.00 to 8.00.
Turning to `Cc1n[nH]c2ccc(C(=O)N3CCC[C@H]3c3ccc(F)cc3)nc12` [compound 242, (S)-(2-(4-fluorophenyl)pyrrolidin-1-yl)(3-methyl-1H-pyrazolo[4,3-b]pyridin-5-yl)methanone], the pIC50 is greater than 8.00.
`COc1n[nH]c2ncc(C(=O)N3CCC[C@H]3c3ccc(Cl)cc3)cc12` [compound 243, (S)-(2-(4-chlorophenyl)pyrrolidin-1-yl)(3-methoxy-1H-pyrazolo[3,4-b]pyridin-5-yl)methanone]: the pIC50 was 7.00 to 8.00.
On to `Cc1n[nH]c2ncc(C(=O)N3CCC[C@H]3c3ccc4[nH]ncc4c3)cc12` [compound 245, [(S)-2-(1H-Indazol-5-yl)-pyrrolidin-1-yl]-(3-methyl-1H-pyrazolo[3,4-b]pyridin-5-yl)-methanone], for which the pIC50 was 7.00 to 8.00.
In the case of `Cc1n[nH]c2ncc(C(=O)N3CCC[C@@H]3c3ccc4[nH]ncc4c3)cc12` [compound 246, [(R)-2-(1H-Indazol-5-yl)-pyrrolidin-1-yl]-(3-methyl-1H-pyrazolo[3,4-b]pyridin-5-yl)-methanone], the pIC50 is 5.00 to 6.00.
Turning to `Cc1n[nH]c2ncc(C(=O)N3CCC[C@H]3c3ccc(C#N)cc3)cc12` [compound 247, 4-[(S)-1-(3-Methyl-1H-pyrazolo[3,4-b]pyridine-5-carbonyl)-pyrrolidin-2-yl]-benzonitrile], the pIC50 was 7.00 to 8.00.
On the same count and under the same terms, with `Cc1n[nH]c2ncc(C(=O)N3CCC[C@@H]3c3ccc(C#N)cc3)cc12` [compound 248, 4-[(R)-1-(3-Methyl-1H-pyrazolo[3,4-b]pyridine-5-carbonyl)-pyrrolidin-2-yl]-benzonitrile] the figure was 5.00 to 6.00; with `Cc1n[nH]c2ncc(C(=O)N3CCC(CCO)(c4ccc(Cl)cc4)C3)cc12` (centres unmarked) [compound 249, [3-(4-Chloro-phenyl)-3-(2-hydroxy-ethyl)-pyrrolidin-1-yl]-(3-methyl-1H-pyrazolo[3,4-b]pyridin-5-yl)-methanone], 7.00 to 8.00.
The same measure, in the same setting: then `Nc1n[nH]c2ccc(C(=O)N3CCC(CCO)(c4ccc(Cl)cc4)C3)cc12` (centres unmarked) [compound 250, (3-Amino-1H-indazol-5-yl)-[3-(4-chloro-phenyl)-3-(2-hydroxy-ethyl)-pyrrolidin-1-yl]-methanone], with 6.00 to 7.00; and `Cc1n[nH]c2ncc(C(=O)N3C[C@H](N)C[C@H]3c3ccc(Cl)cc3)cc12` [compound 251, [(2S,4R)-4-Amino-2-(4-chloro-phenyl)-pyrrolidin-1-yl]-(3-methyl-1H-pyrazolo[3,4-b]pyridin-5-yl)-methanone], with 6.00 to 7.00; and `Cc1n[nH]c2ncc(C(=O)N3CCC[C@H]3c3ccc(Cl)c(C#N)c3)cc12` [compound 252, 2-Chloro-5-[(S)-1-(3-methyl-1H-pyrazolo[3,4-b]pyridine-5-carbonyl)-pyrrolidin-2-yl]-benzonitrile], with 6.00 to 7.00.
As to `Cc1n[nH]c2ncc(C(=O)N3CCC[C@@H]3c3ccc(Cl)c(C#N)c3)cc12` [compound 253, 2-Chloro-5-[(R)-1-(3-methyl-1H-pyrazolo[3,4-b]pyridine-5-carbonyl)-pyrrolidin-2-yl]-benzonitrile], the pIC50 is 5.00 to 6.00.
Turning to `CN[C@@H]1C[C@@H](c2ccc(Cl)cc2)N(C(=O)c2cnc3[nH]nc(C)c3c2)C1` [compound 254, [(2S,4R)-2-(4-Chloro-phenyl)-4-methylamino-pyrrolidin-1-yl]-(3-methyl-1H-pyrazolo[3,4-b]pyridin-5-yl)-methanone], the pIC50 was 6.00 to 7.00.

Still in this assay, the particulars now being: IC50 [μM], CDK8 co-expressed with CycC; class symbols.
As usually defined, the IC50 is the midpoint of a concentration-inhibition curve. A lower IC50 goes with greater potency in that assay. `CNc1n[nH]c2ccc(C(=O)N3CCC[C@H]3c3ccc(Cl)cc3)cc12` [compound 236, [(S)-2-(4-Chloro-phenyl)-pyrrolidin-1-yl]-(3-methylamino-1H-indazol-5-yl)-methanone] displayed an IC50 of less than 0.01 µM.
As to `Cc1n[nH]c2ccc(C(=O)N3CCN(C)CC3c3ccc(Cl)cc3)cc12` (centres unmarked) [compound 244, (2-(4-chlorophenyl)-4-methylpiperazin-1-yl)(3-methyl-1H-indazol-5-yl)methanone], the IC50 lay in the range of 0.01 to 0.1 µM.

The values are drawn from patent US9862717B2 (Merck Patent GmbH, priority 2014, dated 2018).
